Source: patent US20050054006A1, “Combinatorial fluorescent library based on the styryl scaffold” (New York University, priority 2003, published 2005)

Key:
[1] = Fluorescence excitation/emission of the styryl dye library compounds; format: physicochemical; conditions: EX/EM peak no. 1
[2] = test system: UACC-62 human melanoma cells; assay: Organelle localization in live cells by fluorescence microscopy; conditions: live UACC-62 cells, fluorescence microscope λex=405, 490, 570 nm; λem>510 nm

Row | SMILES | EM(nm) [1] [nm] | EX(nm) [1] | LOCALIZATION [2]
1 | C[n+]1ccc(C=CCc2ccccc2)cc1.[I-] [Compound A1] | 490 | 390 nm | CYTO
2 | C[n+]1ccc(C=Cc2ccc(OCc3ccccc3)c(OCc3ccccc3)c2)cc1.[I-] [Compound A12] | 540 | 330-460 nm | MITO
3 | COc1ccc(C=Cc2cc[n+](C)cc2)c2ccccc12.[I-] [Compound A14] | 550 | 430(broad) nm | MITO
4 | CN(C)c1ccc(C=Cc2cc[n+](C)cc2)cc1.[I-] [Compound A19] | 600 | 460 nm | MITO and NUCLEOLI
5 | COc1ccc2ccccc2c1C=Cc1cc[n+](C)cc1.[I-] [Compound A23] | 540 | 450 (broad) nm | CYTO and MITO
6 | C[n+]1ccc(C=Cc2c[nH]c3ccccc23)cc1.[I-] [Compound A24] | 530 | 400) nm | CYTO
7 | CN(C)c1ccc(C=Cc2cc[n+](C)cc2)c2ccccc12.[I-] [Compound A27] | 640 | 450 nm | CYTO
8 | C[n+]1ccc(C=Cc2cccc3ccccc23)cc1.[I-] [Compound A32] | 510 | 400 nm | MITO and CYTO and VESICLE
9 | COc1ccc(/C=C/c2cc[n+](C34CC5CC(CC(C5)C3)C4)cc2)cc1OC.[Br-] [Compound B11] | 540 | 340-440 nm | MITO
10 | Oc1ccc(C=Cc2cc[n+](C34CC5CC(CC(C5)C3)C4)cc2)cc1.[Br-] [Compound B16] | 590 | 400 nm | MITO
11 | O=[N+]([O-])c1ccc(C=Cc2cc[n+](C34CC5CC(CC(C5)C3)C4)cc2)cc1.[Br-] [Compound B22] | 600 | 410-420 nm | MITO
12 | O=Cc1ccccc1C=Cc1cc[n+](C23CC4CC(CC(C4)C2)C3)cc1.[Br-] [Compound B25] | 570 | 430 nm | CYTO
13 | Fc1c(F)c(F)c(C=Cc2cc[n+](C34CC5CC(CC(C5)C3)C4)cc2)c(F)c1F.[Br-] [Compound B31] | 580 | 430 nm | MITO
14 | COc1ccc2c(ccc(C=Cc3cc(OC)c(OC)c(OC)c3)[n+]2C)c1.[I-] [Compound I13] | 580 | 430 nm | –
15 | COc1ccc2c(ccc(C=Cc3ccc(OC)c(O)c3)[n+]2C)c1.[I-] [Compound I15] | 520 | 360 nm | –
16 | COc1ccc2c(ccc(C=Cc3ccc([N+](=O)[O-])cc3)[n+]2C)c1.[I-] [Compound I22] | 510 | 360 nm | –
17 | COc1ccc2c(ccc(C=Cc3c(OC)ccc4ccccc34)[n+]2C)c1.[I-] [Compound I23] | 550 | 340-360 nm | –
18 | COc1ccc2c(ccc(C=Cc3ccccc3F)[n+]2C)c1.[I-] [Compound I29] | 580 | – | –
19 | COc1ccc2c(ccc(C=Cc3c4ccccc4cc4ccccc34)[n+]2C)c1.[I-] [Compound I34] | 650 | 490 nm | –
20 | COc1ccc2c(ccc(C=CC=Cc3ccccc3[N+](=O)[O-])[n+]2C)c1.[I-] [Compound I36] | 530 | 360 nm | –
21 | COc1ccc2c(ccc(C=Cc3ccc4c(c3)OCO4)[n+]2C)c1.[I-] [Compound I39] | 500 | 380 nm | –
22 | COc1ccc2c(ccc(C=Cc3ccc4ccc5cccc6ccc3c4c56)[n+]2C)c1.[I-] [Compound I41] | 630 | 480 nm | –
23 | COc1ccc(C=Cc2cc[n+](C)c(-c3cc(C)ccn3)c2)cc1OC.[I-] [Compound J11] | 560 | 420 nm | –

Row | SMILES | EM(nm) [1] [nm] | EX(nm) [1] | LOCALIZATION [2]
24 | COc1cc(C=Cc2cc[n+](C)c(-c3cc(C)ccn3)c2)cc(OC)c1OC.[I-] [Compound J13] | 590 | – | –
25 | COc1ccc(C=Cc2cc[n+](C)c(-c3cc(C)ccn3)c2)c2ccccc12.[I-] [Compound J14] | 580 | 420-480 nm | –
26 | COc1ccc2ccccc2c1C=Cc1cc[n+](C)c(-c2cc(C)ccn2)c1.[I-] [Compound J23] | 570 | 430-460 nm | –
27 | Cc1ccnc(-c2cc(/C=C/c3c[nH]c4ccccc34)cc[n+]2C)c1.[I-] [Compound J24] | 560 | 420-500 nm | –
28 | Cc1ccnc(-c2cc(C=Cc3ccc(N(C)C)c4ccccc34)cc[n+]2C)c1.[I-] [Compound J27] | 670 | 460 nm | –
29 | Cc1ccnc(-c2cc(C=Cc3c4ccccc4cc4ccccc34)cc[n+]2C)c1.[I-] [Compound J34] | 630 | 430 nm | –
30 | Cc1ccnc(-c2cc(C=CC=Cc3ccccc3[N+](=O)[O-])cc[n+]2C)c1.[I-] [Compound J36] | 540 | 420 nm | –
31 | Cc1ccnc(-c2cc(C=CC=Cc3ccc(N(C)C)cc3)cc[n+]2C)c1.[I-] [Compound J37] | 730 | 550(broad) nm | –
32 | Cc1ccnc(-c2cc(/C=C/c3ccccn3)cc[n+]2C)c1.[I-] [Compound J40] | 580 | 400 nm | –
33 | Cc1ccnc(-c2cc(C=Cc3ccc4ccc5cccc6ccc3c4c56)cc[n+]2C)c1.[I-] [Compound J41] | 630 | 460 nm | –
34 | Cc1cccc(C=Cc2ccc(OCc3ccccc3)c(OCc3ccccc3)c2)[n+]1C.[I-] [Compound L12] | 520 | 390 nm | –
35 | COc1cc(C=Cc2cccc(C)[n+]2C)cc(OC)c1OC.[I-] [Compound L13] | 540 | 380 nm | –
36 | COc1ccc(C=Cc2cccc(C)[n+]2C)c2ccccc12.[I-] [Compound L14] | 570 | 420 (broad) nm | –
37 | COc1ccc(C=Cc2cccc(C)[n+]2C)cc1O.[I-] [Compound L15] | 570 | 390 nm | –
38 | Cc1cccc(C=Cc2ccc(O)cc2)[n+]1C.[I-] [Compound L16] | 500 | 390 nm | –
39 | Cc1cccc(/C=C/c2ccc(-c3ccccc3)cc2)[n+]1C.[I-] [Compound L17] | 500 | 420 nm | –
40 | Cc1cccc(/C=C/c2c[nH]c3ccccc23)[n+]1C.[I-] [Compound L24] | 500 | 430 nm | –
41 | Cc1cccc(C=Cc2ccc(N(C)C)c3ccccc23)[n+]1C.[I-] [Compound L27] | 620 | 430 nm | –
42 | Cc1cccc(C=C/C=C/c2ccc(N(C)C)cc2)[n+]1C.[I-] [Compound L37] | 680 | 480 nm | –
43 | COc1cc(OC)c(OC)cc1C=Cc1cccc(C)[n+]1C.[I-] [Compound L38] | 570 | 420 nm | –
44 | Cc1cccc(C=Cc2ccc3c(c2)OCO3)[n+]1C.[I-] [Compound L39] | 510 | 390 nm | –
45 | Cc1cccc(/C=C/c2ccccn2)[n+]1C.[I-] [Compound L40] | 620 | 380 nm | –
